Columns and labels:
[1] = Effect of varying relative humidity on amorphous Dorzolamide hydrochloride (hygroscopicity chamber; LOD by TGA, crystal form by XRD); format: physicochemical
Method: (§1) The scanning parameters are as follows: the range is preferably about 2° to about 40° 2θ over a substantially continuous scan at a rate of about 3° per minute. The accuracy of peak positions is defined as ±0.2° due to experimental differences, such as instrumentations, sample preparations, and the like.
Thermal Gravimetric Analysis (TGA) is preferably performed with a Mettler Toledo TGA/SDTA 851^e. Sample weights preferably range from about 7 to about 15 mg, the heating rate is preferably about 10° C. per minute in a N2 stream having a flow rate of about 50 ml per minute over a scan range of about 30° to about 250° C.
Each of a series of 200 mg samples of amorphous Dorzolamide hydrochloride are exposed to a relative humidity (RH) of one of 0, 20, 40, 60, 80, and 100 percent for a period of 5 days at room temperature in a hygroscopicity chamber. The loss on drying (LOD) of the samples is measured by TGA before and after exposure, and the values obtained are plotted against the RH values. In addition, the crystal form of each sample is measured by XRD before and after the exposure.

[2] = Exposure of amorphous Dorzolamide HCl to about 160° C. for about 15 minutes, crystal form by XRD; format: physicochemical; settings: oven, open glass weighing bottle
Method: as §1

[3] = RH 0 %, 5 days, room temperature
[4] = RH 20 %, 5 days, room temperature
[5] = RH 40 %, 5 days, room temperature

Crystal form by XRD ([1]; Original sample, before exposure): amorphous
LOD (%) ([1]; Original sample, before exposure, LOD by TGA): 2.7%
Crystal form by XRD [1, 3]: amorphous
LOD (%) [1, 3]: 2.0%
Crystal form by XRD [1, 4]: amorphous
LOD (%) [1, 4]: 2.9%
Crystal form by XRD [1, 5]: amorphous
LOD (%) [1, 5]: 3.8%
LOD (%) ([1]; RH 60 %, 5 days, room temperature): 0.2%
Crystal form by XRD ([1]; RH 60 %, 5 days, room temperature, hydrochloride): Form II
Crystal form by XRD ([1]; RH 60 %, 5 days, room temperature, listed as Dorzolamide HCl, hydrochloride): transforms to crystal form II
LOD (%) ([1]; RH 80 %, 5 days, room temperature): 0.2%
Crystal form by XRD ([1]; RH 80 %, 5 days, room temperature, hydrochloride): Form II
Crystal form by XRD ([1]; RH 80 %, 5 days, room temperature, listed as Dorzolamide HCl, hydrochloride): transforms to crystal form II
LOD (%) ([1]; RH 100 %, 5 days, room temperature): 0.2%
Crystal form by XRD ([1]; RH 100 %, 5 days, room temperature, hydrochloride): Form II
Crystal form by XRD ([1]; RH 100 %, 5 days, room temperature, listed as Dorzolamide HCl, hydrochloride): transforms to crystal form II
SMILES: CCN[C@H]1C[C@H](C)S(=O)(=O)c2sc(S(N)(=O)=O)cc21.Cl [Amorphous Dorzolamide HCl, 5,6-dihydro-4-(S)-ethylamino-6-(S)-methyl-4H-thieno-[2,3-b]thiopyran-2-sulfonamide-7,7-dioxyde hydrochloride]
Crystal form by XRD after heating [2]: changed the material to the crystalline, anhydrous form II

From patent US20060173068A1, “Amorphous and crystalline forms of dorzolamide hydrochloride and processes of making same” (priority 2005, published 2006)
